Reference: ChEMBL document CHEMBL1129278, “Binding of arylpiperazines, (aryloxy)propanolamines, and tetrahydropyridylindoles to the 5-HT1A receptor: contribution of the molecular lipophilicity potential to three-dimensional quantitative structure-affinity relationship models” (J Med Chem, 1996)

Target: T1, 5-hydroxytryptamine receptor 1A (Rattus norvegicus, UniProt P19327)
T1 sequence (P19327 whole entry): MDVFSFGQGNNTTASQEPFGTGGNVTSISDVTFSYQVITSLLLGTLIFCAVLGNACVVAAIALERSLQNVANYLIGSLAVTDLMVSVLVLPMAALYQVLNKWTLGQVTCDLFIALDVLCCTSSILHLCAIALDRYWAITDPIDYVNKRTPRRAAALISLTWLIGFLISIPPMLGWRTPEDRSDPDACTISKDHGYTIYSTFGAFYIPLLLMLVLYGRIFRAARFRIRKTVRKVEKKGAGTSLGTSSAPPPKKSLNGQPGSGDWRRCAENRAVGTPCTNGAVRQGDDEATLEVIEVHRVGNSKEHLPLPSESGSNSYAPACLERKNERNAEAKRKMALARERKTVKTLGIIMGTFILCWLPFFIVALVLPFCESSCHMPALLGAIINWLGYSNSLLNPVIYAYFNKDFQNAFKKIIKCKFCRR

Row | SMILES | Ki
1 | O=C1c2ccccc2C(=O)N1CCCCN1CCN(c2ccccn2)CC1 | 6.17 nM
2 | CCCc1ccc2c(c1CCC)CC(N(CCC)CCC)CO2 (configuration not stated) | 10000 nM
3 | CCCN(CCC)C1CCc2cccc(C(=O)OC)c2C1 (configuration not stated) | 1.7 nM
4 | COc1ccccc1N1CCN(CCCCNC(=O)C2CCCCC2)CC1 | 0.603 nM
5 | CN1CCN(c2cccc3c2OCCO3)CC1 | 22.9 nM
6 | c1ccc2c(c1)CCC2N1CCN(c2cccc3c2OCCO3)CC1 (configuration not stated) | 1.82 nM
7 | CC(C)(C)NC[C@H](O)COc1ccccc1C1CCCC1 [PENBUTOLOL] | 2.4 nM
8 | CC(O)CN(CC(C)O)CC(O)COc1cccc2ccccc12 (configuration not stated) | 1320 nM
9 | CCCCN(CCCC)CC(O)COc1cccc2ccccc12 (configuration not stated) | 224 nM
10 | CCCN(CCC)CC(O)CO (configuration not stated) | 2750 nM
11 | CCCN(CCCCCCN1C(=O)CC2(CCCC2)CC1=O)C1COc2cccc(OC)c2C1 (configuration not stated) | 0.501 nM
12 | CCCN(CCNC(C)=O)C1COc2cccc(OC)c2C1 (configuration not stated) | 20 nM
13 | COc1ccccc1N1CCN(CCCCNc2ccc([N+](=O)[O-])c3nonc23)CC1 | 0.398 nM
14 | NCCCCN1CCN(c2ccccc2)CC1 | 6030 nM
15 | CCN(CC)C(=O)Nc1ccc(OCC(O)CNC(C)(C)C)c(C(C)=O)c1 (configuration not stated) [CELIPROLOL] | 8910 nM
16 | COc1ccccc1N1CCN(CCCCCc2ccccc2)CC1 | 5.62 nM
17 | CCCN(C1COc2cccc(OC)c2C1)N1C(=O)C2CCCC2C1=O (stereo in doubt; 247) | 1 nM
18 | CC(C)(C)NCC(O)COc1cccc2c1NC(=O)CC2 (configuration not stated) | 224 nM
19 | O=C(c1ccccc1)N1CCN(c2cccc(Cl)c2)CC1 | 100000 nM
20 | O=C1c2ccccc2C(=O)N1CCCCN1CCN(c2ccccc2Cl)CC1 | 5.01 nM
21 | CNCCc1c[nH]c2ccc(O)cc12 | 4.9 nM
22 | CCCNC1CCc2cccc(OC)c2C1 (configuration not stated) | 4.79 nM
23 | O=C1CC2(CCCC2)CC(=O)N1CCCN1CCN(c2ncccn2)CC1 | 214 nM
24 | Cn1cc(CCN)c2c3c(ccc21)OCCC3 | 2630 nM
25 | C=C=CN1CCN(c2cccc(Cl)c2)CC1 | 251 nM

Row | SMILES | Ki
26 | Cn1cc(C(F)(F)F)nc1-c1ccc(OCC(O)CNCCOc2ccc(O)c(C(N)=O)c2)cc1 (configuration not stated) [CGP-20712A] | 603 nM
27 | CCCN1CC=C(c2c[nH]c3ccc(C(=O)OC)cc23)CC1 | 380 nM
28 | CCCN(CCCN1C(=O)c2ccccc2C1=O)C1COc2cccc(OC)c2C1 (configuration not stated) | 50.1 nM
29 | FC(F)(F)c1ccc2c(c1)nc(N1CCNCC1)c1cccn12 | 18.6 nM
30 | CC(C)NCC(O)COc1ccccc1 (configuration not stated) | 170 nM
31 | COc1cccc2c1CC(N1CCCCC1)CC2 (configuration not stated) | 77.6 nM
32 | CC(C)C(=O)N1CCN(c2cccc(Cl)c2)CC1 | 100000 nM
33 | COc1ccccc1N1CCN(CCCCNC(=O)C(C)c2ccccc2)CC1 (configuration not stated) | 10 nM
34 | Cc1ccc2[nH]cc(C3=CCN(C)CC3)c2c1 | 31.6 nM
35 | CC(C)NCC(O)COc1ccc(CCOCCOC(C)C)cc1 (configuration not stated) | 10000 nM
36 | COc1ccccc1N1CCN(CCc2ccccc2)CC1 | 1.82 nM
37 | CC(C)NCC(O)COc1cccc2[nH]c(OC(=O)OC(C)C)cc12 (configuration not stated) | 17.4 nM
38 | O=C1c2ccccc2C(=O)N1CCN1CCN(c2ccccc2)CC1 | 10000 nM
39 | CCCN(CCCCN1C(=O)CC2(CCCC2)CC1=O)C1COc2cccc(OC)c2C1 (configuration not stated) | 0.1 nM
40 | COc1c(Cl)cccc1N1CCNCC1 | 871 nM
41 | O=C(NCCN1CCN(/C(O)=C2/COCCO2)CC1)c1ccc(F)cc1 | 9.12 nM
42 | O=C1CC2(CCCC2)CC(=O)N1CCN1CCN(c2ncccn2)CC1 | 151 nM
43 | CCCN(CCC)C1CCc2cccc(CO)c2C1 (configuration not stated) | 129 nM
44 | Brc1ccc2[nH]cc(C3=CCNCC3)c2c1 | 6.46 nM
45 | CN1CC=C(c2c[nH]c3ccc([N+](=O)[O-])cc23)CC1 | 37.2 nM
46 | C=CCOc1ccccc1OCC(O)CNC(C)C (configuration not stated) [OXPRENOLOL] | 93.3 nM
47 | CNCC(O)CO (configuration not stated) | 3310 nM
48 | CCCN(CCC)C1CCc2cccc(C(=O)C3CCCCC3)c2C1 (configuration not stated) | 15.8 nM
49 | CN(C)CCc1cn(C)c2ccc3c(c12)CCCO3 | 2690 nM
50 | COc1ccccc1OCC(O)CN(C)C (configuration not stated) | 3020 nM

Row | SMILES | Ki
51 | CN(C)CC(O)CO (stereo in doubt; 122) | 5010 nM
52 | CCCN(CCC)CC(O)COc1cccc2ccccc12 (configuration not stated) | 447 nM
53 | CCCN(CCC)C1CCc2cccc(C(C)=O)c2C1 (configuration not stated) | 0.708 nM
54 | CCCN(CCNS(=O)(=O)c1ccc(C)cc1)C1COc2cccc(OC)c2C1 (configuration not stated) | 1 nM
55 | CCCN(CCCCN1C(=O)CC(C)(C)CC1=O)C1COc2cccc(OC)c2C1 (configuration not stated) | 2 nM
56 | O=C1c2ccccc2C(=O)N1CCCCN1CCN(c2cccc(Cl)c2)CC1 | 4.68 nM
57 | CC(C)NCC(O)COc1cccc2[nH]ccc12 (configuration not stated) [PINDOLOL] | 21.9 nM
58 | CCCN(CCN1C(=O)CC2(CCCC2)CC1=O)C1COc2cccc(OC)c2C1 (configuration not stated) | 15.1 nM
59 | CC(C)(C)NCC(O)COc1cccc2c1SCCC2 (configuration not stated) [TERTATOLOL] | 18.6 nM
60 | CCCN(CCCCN1C(=O)CC2(CCCC2)CC1=O)C1COc2cccc(O)c2C1 (stereo in doubt; 258) | 0.501 nM
61 | COc1ccccc1OCCNCC(O)COc1cccc2[nH]c3ccccc3c12 (configuration not stated) [CARVEDILOL] | 3.16 nM
62 | Cc1ccc(OCC(O)CNC(C)C)c2c1CCC2 (configuration not stated) | 19100 nM
63 | CCCN(C1COc2cccc(OC)c2C1)N1C(=O)C2CCCC2C1=O (stereo in doubt; 255) | 0.501 nM
64 | CCCN(CCCCN1CCOCC1)C1COc2cccc(OC)c2C1 (configuration not stated) | 3.98 nM
65 | NCCc1c[nH]c2ccc3c(c12)CCCO3 | 302 nM
66 | COc1ccccc1N1CCN(CCCCc2ccccc2)CC1 | 1 nM
67 | CCCN(CCC)C1COc2cccc(OC)c2C1 (configuration not stated) | 10 nM
68 | COc1ccccc1N1CCNCC1 | 12.9 nM
69 | CCCN(CCCCN1CCCCC1)C1COc2cccc(OC)c2C1 (configuration not stated) | 1 nM
70 | CCCCN1CCN(c2ccccc2OC)CC1 | 129 nM
71 | COc1ccccc1N1CCN(CCCN2C(=O)c3ccccc3C2=O)CC1 | 20 nM
72 | CCCN(CCC)C1CCc2cccc(C(=O)O)c2C1 (configuration not stated) | 302 nM
73 | CN1CC=C(c2c[nH]c3ccc(Br)cc23)CC1 | 15.1 nM
74 | CCCN(CCCN1C(=O)CC2(CCCC2)CC1=O)C1COc2cccc(OC)c2C1 (configuration not stated) | 0.501 nM
75 | CCCN(CCCCN1C(=O)c2ccccc2C1=O)C1COc2cccc(O)c2C1 (configuration not stated) | 44.7 nM

Row | SMILES | Ki
76 | CCCN(CCCCNC(=O)c1ccccc1OC)C1COc2cccc(OC)c2C1 (configuration not stated) | 0.501 nM
77 | CCCN(CCC)C1CCc2cccc(C3CCCCC3)c2C1 (configuration not stated) | 24 nM
78 | COc1ccc2[nH]cc(CCN(C)C)c2c1 [MEBUFOTENIN] | 5.5 nM
79 | CN1CCN(c2nc3cc(C(F)(F)F)ccc3n3cccc23)CC1 | 9.55 nM
80 | C1=C(c2c[nH]c3ccccc23)CCNC1 | 141 nM
81 | Clc1ccc2[nH]cc(C3=CCNCC3)c2c1 | 13.2 nM
82 | CCCN(CCCNS(=O)(=O)c1ccc(C)cc1)C1COc2cccc(OC)c2C1 (configuration not stated) | 1.51 nM
83 | CC(C)CN1CCN(c2cccc(Cl)c2)CC1 | 64.6 nM
84 | CN(C)CC(O)COc1ccccc1O (configuration not stated) | 4900 nM
85 | CCCCN1CCN(c2cccc3ccccc23)CC1 | 7.08 nM
86 | CCCN(CCC)C1CCc2ccccc2C1 (configuration not stated) | 56.2 nM
87 | NCCc1c[nH]c2ccc(C(N)=O)cc12 | 0.295 nM
88 | CNCC(COc1cccc(C(F)(F)F)c1)c1ccccc1 (configuration not stated) | 66100 nM
89 | COc1ccc2cccc(N3CCN(CCNC(=O)c4cccs4)CC3)c2c1 | 0.562 nM
90 | CC(C)(C)NCC(O)COc1ccc2c(c1)C[C@H](O)[C@H](O)C2 (some centres not stated) | 1070 nM
91 | N#Cc1ccc2[nH]cc(C3=CCNCC3)c2c1 | 16.2 nM
92 | CCCN(CCCCNS(=O)(=O)c1ccc(C)cc1)C1COc2cccc(OC)c2C1 (configuration not stated) | 1 nM
93 | c1ccc2cc(N3CCNCC3)ccc2c1 | 3240 nM
94 | CC1(C)CC(=O)N(CCCCN2CCN(c3ccccn3)CC2)C(=O)C1 | 70.8 nM
95 | Clc1cccc(N2CCN(C3CC3)CC2)c1 | 158 nM
96 | CN1CC=C(c2c[nH]c3ccc(Cl)cc23)CC1 | 26.3 nM
97 | O=[N+]([O-])c1ccc2[nH]cc(C3=CCNCC3)c2c1 | 18.2 nM
98 | CC(C)NCC(O)COc1cccc2[nH]c(C#N)cc12 (configuration not stated) | 2.14 nM
99 | C#Cc1cccc2c1CC(N(CCC)CCC)CC2 (configuration not stated) | 15.8 nM
100 | CCCN(C1COc2cccc(OC)c2C1)N1C(=O)c2ccccc2S1(=O)=O (configuration not stated) | 0.501 nM

Row | SMILES | Ki
101 | CCCN(CCCCN1C(=O)c2ccccc2C1=O)C1COc2cccc(OC)c2C1 (configuration not stated) | 2.51 nM
102 | CN(C)CCc1c[nH]c2ccc(O)cc12 [BUFOTENINE] | 25.1 nM
103 | O=C1c2ccccc2C(=O)N1CCCCN1CCN(c2ccccc2)CC1 | 8.51 nM
104 | CCCCCCCCN1CCN(c2cccc3c2OCCO3)CC1 | 1 nM
105 | CCCN(CCCCNC(=O)c1ccc(F)cc1)C1COc2cccc(OC)c2C1 (configuration not stated) | 0.2 nM
106 | CCCN(CCC)C1COc2ccccc2C1 (configuration not stated) | 200 nM
107 | Cc1[nH]c2ccc(O)cc2c1CCN | 2510 nM
108 | COc1ccccc1N1CCN(CCCc2ccccc2)CC1 | 3.72 nM
109 | CCCN(CCCON1C(=O)CC2(CCCC2)CC1=O)C1COc2cccc(OC)c2C1 (configuration not stated) | 0.501 nM
110 | Fc1ccc2[nH]cc(C3=CCNCC3)c2c1 | 32.4 nM
111 | COc1ccccc1N1CCN(CCN2C(=O)c3ccccc3C2=O)CC1 | 1000 nM
112 | C[C@H](CCc1ccccc1)NC[C@H](O)c1ccc(O)c(C(N)=O)c1 [DILEVALOL] | 295 nM
113 | NCCc1c[nH]c2ccc(N)cc12 | 708 nM
114 | O=C1C=CC(c2[nH]c3ccccc3c2C2=CCNCC2)=NC1 | 1510 nM
115 | CN1CC=C(c2c[nH]c3ccc(N)cc23)CC1 | 24500 nM
116 | Oc1ccc2[nH]cc(C3=CCNCC3)c2c1 | 15.1 nM
117 | CCCN(CCC)C1CCc2cccc(OC)c2C1 (configuration not stated) | 2.63 nM
118 | CN(C)CCCC1(c2ccc(F)cc2)OCc2cc(C#N)ccc21 (configuration not stated) [CITALOPRAM] | 50100 nM
119 | CC(=O)N1CCN(c2cccc(Cl)c2)CC1 | 100000 nM
120 | CC(C)(C)NC[C@H](O)COc1nsnc1N1CCOCC1 [TIMOLOL] | 617 nM
121 | CCCN(CCC)C1CCc2cccc(C)c2C1 (configuration not stated) | 61.7 nM
122 | O=C1c2ccccc2S(=O)(=O)N1CCCCN1CCN(c2ccccn2)CC1 | 6.92 nM
